Laboratory results reported in PubChem BioAssay (NCI).
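In this assay, cells in 96-well plates receive the compound at five concentrations for 48 hours. Endpoints are linearly interpolated between the surrounding concentrations. Abbreviation: GI50, concentration required for 50% inhibition of growth. TGI denotes the concentration required for complete inhibition of growth.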

Legend:
Experiment in all cases: growth of human tumour cells (NCI), 48 h
SW-620 colon = test system: SW-620 colon
HCT-15 colon = test system: HCT-15 colon
TK-10 renal = test system: TK-10 renal
COLO 205 colon = test system: COLO 205 colon
HT29 colon = test system: HT29 colon
RPMI-8226 leukemia = test system: RPMI-8226 leukemia
CAKI-1 renal = test system: CAKI-1 renal
HS 578T breast = test system: HS 578T breast

Structure (SMILES) | GI50 (SW-620 colon) | TGI (SW-620 colon) | GI50 (HCT-15 colon) | TGI (HCT-15 colon) | GI50 (TK-10 renal) | TGI (TK-10 renal) | GI50 (COLO 205 colon) | TGI (COLO 205 colon) | GI50 (HT29 colon) | TGI (HT29 colon) | GI50 (RPMI-8226 leukemia) | TGI (RPMI-8226 leukemia) | GI50 (CAKI-1 renal) | TGI (CAKI-1 renal) | GI50 (HS 578T breast) | TGI (HS 578T breast)
COc1ccc(C)c2sc(N(Cc3cccnc3)C(=O)c3ccc(C#N)cc3)nc12 | 54.2 µM | > 100 µM | 30.5 µM | > 100 µM | 58.4 µM | > 100 µM | 24.7 µM | 70 µM | 28.5 µM | > 100 µM | 26.1 µM | > 100 µM | 47.2 µM | > 100 µM | 50.2 µM | > 100 µM
Cc1ccc(/C(=N/NS(=O)(=O)c2cc(C)c(Cl)cc2Cl)Sc2cc(Cl)c(C)cc2S(N)(=O)=O)cc1 | > 100 µM | > 100 µM | > 100 µM | > 100 µM | > 100 µM | > 100 µM | > 100 µM | > 100 µM | > 100 µM | > 100 µM | 51.3 µM | > 100 µM | > 100 µM | > 100 µM | > 100 µM | > 100 µM
NC(=O)c1cn(C2CC(O)C(CO)O2)c2ncnc(N)c12 (configuration not stated) | 2.58 µM | 20.6 µM | 3.89 µM | 55.2 µM | 1.96 µM | 19.5 µM | 5.01 µM | 24 µM | 2.07 µM | > 54.8 µM | 27.7 µM | > 100 µM | 3.2 µM | 39.4 µM | 2.27 µM | 17.3 µM
O=Cc1ccc(-c2ccc(-c3nc4ccccc4s3)cc2)o1 | 89 µM | > 100 µM | 90.4 µM | > 100 µM | 22.4 µM | 54 µM | > 100 µM | > 100 µM | > 100 µM | > 100 µM | 20.9 µM | > 100 µM | > 100 µM | > 100 µM | > 100 µM | > 100 µM
O=S(O)O.O=S(O)O.[Co].[NH2-].[NH2-].[NH2-].[NH2-] | > 100 µM | > 100 µM | > 100 µM | > 100 µM | > 100 µM | > 100 µM | > 100 µM | > 100 µM | > 100 µM | > 100 µM | > 100 µM | > 100 µM | > 100 µM | > 100 µM | > 100 µM | > 100 µM
O=C1CN=C(c2ccc[nH]2)c2cc(Cl)ccc2N1 | > 100 µM | > 100 µM | 19.1 µM | > 100 µM | > 100 µM | > 100 µM | > 100 µM | > 100 µM | 38.9 µM | > 100 µM | 3.83 µM | > 100 µM | > 100 µM | > 100 µM | > 100 µM | > 100 µM
COc1ccc(OC)c(N2CC(O)=C(c3nc4ccccc4s3)C2=N)c1 | 32.7 µM | > 100 µM | 5.22 µM | > 100 µM | > 100 µM | > 100 µM | 47.3 µM | > 100 µM | 42.8 µM | > 100 µM | 35.7 µM | > 100 µM | 76.6 µM | > 100 µM | 34.5 µM | > 100 µM
